Assay: xn = mol fraction of the nth substance listed
Settings: Liquid, Pycnometric method

CCCCBr [1-bromobutane] + O=C=O
Settings	mass density [kg/m3]
322.7 K, 11600 kPa, x1 = 0.0683	826
322.7 K, 11640 kPa, x1 = 0.1495	987
322.7 K, 11680 kPa, x1 = 0.0989	884
322.7 K, 11910 kPa, x1 = 0.0461	797
322.7 K, 11910 kPa, x1 = 0.0683	832
322.7 K, 11990 kPa, x1 = 0.1495	990
322.7 K, 12130 kPa, x1 = 0.0989	890
322.7 K, 12220 kPa, x1 = 0.0683	838
322.7 K, 12290 kPa, x1 = 0.1495	994
322.7 K, 12570 kPa, x1 = 0.0683	845
322.7 K, 12610 kPa, x1 = 0.0989	897
322.7 K, 12640 kPa, x1 = 0.0461	814
322.7 K, 12660 kPa, x1 = 0.1495	997
322.7 K, 12900 kPa, x1 = 0.0683	850
322.7 K, 13010 kPa, x1 = 0.1495	1000
322.7 K, 13110 kPa, x1 = 0.0989	903
322.7 K, 13210 kPa, x1 = 0.0461	826
322.7 K, 13280 kPa, x1 = 0.0683	857
322.7 K, 13490 kPa, x1 = 0.1495	1004
322.7 K, 13640 kPa, x1 = 0.0989	910
322.7 K, 13730 kPa, x1 = 0.0683	864
322.7 K, 13820 kPa, x1 = 0.1495	1008
322.7 K, 13830 kPa, x1 = 0.0461	838
322.7 K, 13960 kPa, x1 = 0.0683	867
322.7 K, 14210 kPa, x1 = 0.0989	916
322.7 K, 14230 kPa, x1 = 0.1495	1011
322.7 K, 14620 kPa, x1 = 0.1495	1015
322.7 K, 14880 kPa, x1 = 0.0989	924
322.7 K, 15120 kPa, x1 = 0.1495	1018
322.7 K, 15160 kPa, x1 = 0.0989	926
327.6 K, 8820 kPa, x1 = 0.1495	922
327.6 K, 8950 kPa, x1 = 0.1495	924
327.6 K, 9080 kPa, x1 = 0.0245	359
327.6 K, 9100 kPa, x1 = 0.0989	786
327.6 K, 9110 kPa, x1 = 0.0245	362
327.6 K, 9140 kPa, x1 = 0.1495	927
327.6 K, 9170 kPa, x1 = 0.0245	369
327.6 K, 9220 kPa, x1 = 0.0245	375
327.6 K, 9230 kPa, x1 = 0.0989	791
327.6 K, 9270 kPa, x1 = 0.0245	382
327.6 K, 9330 kPa, x1 = 0.0245	389
327.6 K, 9340 kPa, x1 = 0.1495	930
327.6 K, 9350 kPa, x1 = 0.0683	677
327.6 K, 9360 kPa, x1 = 0.0461	555
327.6 K, 9380 kPa, x1 = 0.0245	396
327.6 K, 9380 kPa, x1 = 0.0461	559
327.6 K, 9380 kPa, x1 = 0.0683	680
327.6 K, 9390 kPa, x1 = 0.0461	563
327.6 K, 9390 kPa, x1 = 0.0989	796
327.6 K, 9420 kPa, x1 = 0.0245	401
327.6 K, 9430 kPa, x1 = 0.0461	569
327.6 K, 9460 kPa, x1 = 0.0245	406
327.6 K, 9470 kPa, x1 = 0.0461	577
327.6 K, 9470 kPa, x1 = 0.0683	688
327.6 K, 9490 kPa, x1 = 0.0461	584
327.6 K, 9520 kPa, x1 = 0.0245	414
327.6 K, 9520 kPa, x1 = 0.1495	933
327.6 K, 9540 kPa, x1 = 0.0989	801
327.6 K, 9560 kPa, x1 = 0.0461	591
327.6 K, 9570 kPa, x1 = 0.0683	696
327.6 K, 9580 kPa, x1 = 0.0245	423
327.6 K, 9650 kPa, x1 = 0.0245	431
327.6 K, 9650 kPa, x1 = 0.0461	599
327.6 K, 9700 kPa, x1 = 0.0683	705
327.6 K, 9700 kPa, x1 = 0.0989	806
327.6 K, 9710 kPa, x1 = 0.0461	606
327.6 K, 9710 kPa, x1 = 0.1495	936
327.6 K, 9720 kPa, x1 = 0.0245	440
327.6 K, 9760 kPa, x1 = 0.0461	615
327.6 K, 9790 kPa, x1 = 0.0245	449
327.6 K, 9830 kPa, x1 = 0.0461	623
327.6 K, 9830 kPa, x1 = 0.0683	714
327.6 K, 9860 kPa, x1 = 0.0245	459
327.6 K, 9890 kPa, x1 = 0.0989	811
327.6 K, 9890 kPa, x1 = 0.1495	939
327.6 K, 9920 kPa, x1 = 0.0461	631
327.6 K, 9950 kPa, x1 = 0.0245	469
327.6 K, 10000 kPa, x1 = 0.0683	723
327.6 K, 10010 kPa, x1 = 0.0461	640
327.6 K, 10030 kPa, x1 = 0.0245	480
327.6 K, 10050 kPa, x1 = 0.0245	484
327.6 K, 10060 kPa, x1 = 0.0245	486
327.6 K, 10070 kPa, x1 = 0.1495	942
327.6 K, 10080 kPa, x1 = 0.0989	817
327.6 K, 10120 kPa, x1 = 0.0461	649
327.6 K, 10190 kPa, x1 = 0.0683	733
327.6 K, 10240 kPa, x1 = 0.0461	658
327.6 K, 10290 kPa, x1 = 0.0989	822
327.6 K, 10310 kPa, x1 = 0.1495	945
327.6 K, 10360 kPa, x1 = 0.0461	668
327.6 K, 10380 kPa, x1 = 0.0683	742
327.6 K, 10500 kPa, x1 = 0.0461	678
327.6 K, 10510 kPa, x1 = 0.0989	828
327.6 K, 10560 kPa, x1 = 0.1495	949
327.6 K, 10630 kPa, x1 = 0.0683	752
327.6 K, 10660 kPa, x1 = 0.0461	688
327.6 K, 10730 kPa, x1 = 0.0989	833
327.6 K, 10780 kPa, x1 = 0.1495	951
327.6 K, 10840 kPa, x1 = 0.0461	698
327.6 K, 10920 kPa, x1 = 0.0683	762
327.6 K, 10990 kPa, x1 = 0.0461	706
327.6 K, 11000 kPa, x1 = 0.1495	954
327.6 K, 11060 kPa, x1 = 0.0989	839
327.6 K, 11240 kPa, x1 = 0.0683	773
327.6 K, 11280 kPa, x1 = 0.1495	958
327.6 K, 11310 kPa, x1 = 0.0989	845
327.6 K, 11520 kPa, x1 = 0.1495	961
327.6 K, 11590 kPa, x1 = 0.0683	783
327.6 K, 11620 kPa, x1 = 0.0989	851
327.6 K, 11790 kPa, x1 = 0.1495	964
327.6 K, 11960 kPa, x1 = 0.0989	857
327.6 K, 11990 kPa, x1 = 0.0683	794
327.6 K, 12050 kPa, x1 = 0.1495	967
327.6 K, 12310 kPa, x1 = 0.0989	862
327.6 K, 12370 kPa, x1 = 0.1495	970
327.6 K, 12460 kPa, x1 = 0.0683	805
327.6 K, 12670 kPa, x1 = 0.1495	974
327.6 K, 12710 kPa, x1 = 0.0989	869
327.6 K, 13000 kPa, x1 = 0.1495	977
327.6 K, 13040 kPa, x1 = 0.0683	817
327.6 K, 13110 kPa, x1 = 0.0989	875
327.6 K, 13350 kPa, x1 = 0.1495	981
327.6 K, 13520 kPa, x1 = 0.0989	880
327.6 K, 13650 kPa, x1 = 0.0683	829
327.6 K, 13660 kPa, x1 = 0.1495	984
327.6 K, 13960 kPa, x1 = 0.1495	987
327.6 K, 13980 kPa, x1 = 0.0989	887
327.6 K, 13990 kPa, x1 = 0.0683	835
327.6 K, 14320 kPa, x1 = 0.1495	990
327.6 K, 14470 kPa, x1 = 0.0989	893
327.6 K, 14690 kPa, x1 = 0.1495	993
327.6 K, 14740 kPa, x1 = 0.0683	848
327.6 K, 14960 kPa, x1 = 0.0683	851
327.6 K, 15000 kPa, x1 = 0.0989	900
327.6 K, 15090 kPa, x1 = 0.1495	997
332.4 K, 9170 kPa, x1 = 0.0245	317
332.4 K, 9200 kPa, x1 = 0.0245	319
332.4 K, 9250 kPa, x1 = 0.0245	323
332.4 K, 9300 kPa, x1 = 0.0245	328
332.4 K, 9350 kPa, x1 = 0.0245	332
332.4 K, 9350 kPa, x1 = 0.1495	896
332.4 K, 9400 kPa, x1 = 0.0245	336
332.4 K, 9440 kPa, x1 = 0.0245	340
332.4 K, 9490 kPa, x1 = 0.0245	345
332.4 K, 9540 kPa, x1 = 0.0245	349
332.4 K, 9580 kPa, x1 = 0.0245	354
332.4 K, 9580 kPa, x1 = 0.1495	900
332.4 K, 9640 kPa, x1 = 0.0245	359
332.4 K, 9670 kPa, x1 = 0.0989	750
332.4 K, 9690 kPa, x1 = 0.0245	364
332.4 K, 9740 kPa, x1 = 0.0245	369
332.4 K, 9760 kPa, x1 = 0.1495	903
332.4 K, 9780 kPa, x1 = 0.0989	755
332.4 K, 9790 kPa, x1 = 0.0245	375
332.4 K, 9810 kPa, x1 = 0.0461	512
332.4 K, 9830 kPa, x1 = 0.0461	516
332.4 K, 9840 kPa, x1 = 0.0245	380
332.4 K, 9840 kPa, x1 = 0.0683	622
332.4 K, 9870 kPa, x1 = 0.0683	625
332.4 K, 9890 kPa, x1 = 0.0461	521
332.4 K, 9890 kPa, x1 = 0.0989	759
332.4 K, 9890 kPa, x1 = 0.1495	906
332.4 K, 9900 kPa, x1 = 0.0245	386
332.4 K, 9900 kPa, x1 = 0.0683	629
332.4 K, 9930 kPa, x1 = 0.0461	527
332.4 K, 9950 kPa, x1 = 0.0245	392
332.4 K, 9960 kPa, x1 = 0.0683	636
332.4 K, 9970 kPa, x1 = 0.0461	533
332.4 K, 10000 kPa, x1 = 0.0683	640
332.4 K, 10000 kPa, x1 = 0.0989	764
332.4 K, 10010 kPa, x1 = 0.0245	398
332.4 K, 10020 kPa, x1 = 0.0245	399
332.4 K, 10020 kPa, x1 = 0.0461	539
332.4 K, 10040 kPa, x1 = 0.1495	909
332.4 K, 10060 kPa, x1 = 0.0461	546
332.4 K, 10070 kPa, x1 = 0.0683	647
332.4 K, 10110 kPa, x1 = 0.0989	769
332.4 K, 10120 kPa, x1 = 0.0461	552
332.4 K, 10150 kPa, x1 = 0.0683	654
332.4 K, 10180 kPa, x1 = 0.0461	559
332.4 K, 10190 kPa, x1 = 0.1495	912
332.4 K, 10240 kPa, x1 = 0.0461	566
332.4 K, 10240 kPa, x1 = 0.0683	662
332.4 K, 10240 kPa, x1 = 0.0989	774
332.4 K, 10300 kPa, x1 = 0.0461	573
332.4 K, 10340 kPa, x1 = 0.0683	670
332.4 K, 10370 kPa, x1 = 0.0461	580
332.4 K, 10370 kPa, x1 = 0.0989	778

Source: the NIST ThermoML archive (doi:10.1021/je900387e)
